Assay results: patent US20240251792A1, “WEED CONTROL METHOD” (SYNGENTA CROP PROTECTION AG, priority 2021, published 2024)
Read-outs that look alike come from different tables or passages of the source.

Columns and labels:
Format in all cases: in vivo
[1] = test system: STEME; test: Biological efficacy, pre-emergence glasshouse test (Table 2); conditions: 1000 g/ha, after 12 days
Description: (§1) Seeds of a variety of test species were shown in unsterilised compost in small pots. After cultivation for one day (pre-emergence) or seven days (post-emergence) in controlled conditions in the glasshouse (at 24/16° C., day/night; 14 hours light; 65% humidity) the plants were sprayed with 1 mg of the active ingredient, formulated in 466 μl of a acetone/water/Tween 20 (49.75:49.75:0.5) solution, which is equivalent to 1000 g/ha. Once the foliage was dry, the pots were kept in the glasshouse (at 24/16° C., day/night; 14 hours light; 65% humidity), and were watered twice daily. After 12 days the test was evaluated and scored (100=total damage to plant, 0=no damage to plant).

[2] = test system: AMARE; test: as above; conditions: 1000 g/ha, after 12 days
Description: as §1

[3] = test system: LOLPE; test: as above; conditions: 1000 g/ha, after 12 days
Description: as §1

[4] = test system: DIGSA; test: as above; conditions: 1000 g/ha, after 12 days
Description: as §1

[5] = test system: STEME; test: Biological efficacy, post-emergence glasshouse test (Table 2); conditions: 1000 g/ha, after 12 days
Description: as §1

[6] = test system: AMARE; test: as above; conditions: 1000 g/ha, after 12 days
Description: as §1

[7] = test system: LOLPE; test: as above; conditions: 1000 g/ha, after 12 days
Description: as §1

[8] = test system: DIGSA; test: as above; conditions: 1000 g/ha, after 12 days
Description: as §1

[9] = test system: weeds and/or crops; test: Post-emergence biological efficacy (Table 4); conditions: 312 h, 1000 g/ha, evaluated after 13 days
In short: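 Scores are visual damage (0 = none, 100 = total), read 13 days after treatment at 24/18 °C with 15 h light. Plants had been sown in standard soil and grown 14 days before a spray of compound in F50/acetone, diluted with 0.2% Genapol X080.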

[10] = test system: STEME; test: Pre-emergence biological efficacy (Table 3); conditions: 312 h, after 13 days, read-out: evaluation (100=total damage to plant; 0=no damage to plant)
In short: (§2)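 Pre-emergence spray applied one day post-sowing; aqueous solution from 50 g/l AMA-based formulation in 0.2% Genapol X080. Evaluation at 13 days, 0 = no damage, 100 = total damage.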

[11] = test system: AMARE; test: Pre-emergence biological efficacy (Table 3); conditions: Amaranthus retroflexus, 312 h, 1000 g/ha, after 13 days, read-out: evaluation (100=total damage to plant; 0=no damage to plant)
In short: as §2

[12] = test system: ECHCG; test: Pre-emergence biological efficacy (Table 3); conditions: Echinochloa crus-galli, 312 h, 1000 g/ha, after 13 days, read-out: evaluation (100=total damage to plant; 0=no damage to plant)
In short: as §2

[13] = test system: ZEAMX; test: Pre-emergence biological efficacy (Table 3); conditions: 312 h, 1000 g/ha, after 13 days, read-out: evaluation (100=total damage to plant; 0=no damage to plant)
In short: as §2

[14] = test system: ABUTH; test: Pre-emergence biological efficacy (Table 3); conditions: Abutilon theophrasti, 312 h, after 13 days, read-out: evaluation (100=total damage to plant; 0=no damage to plant)
In short: as §2

[15] = test system: IPOHE; test: Pre-emergence biological efficacy (Table 3); conditions: Ipomoea hederacea, 312 h, 1000 g/ha, after 13 days, read-out: evaluation (100=total damage to plant; 0=no damage to plant)
In short: as §2

Compound	score (100=total damage to plant, 0=no damage to plant) [1]	score (100=total damage to plant, 0=no damage to plant) [2]	score (100=total damage to plant, 0=no damage to plant) [3]	score (100=total damage to plant, 0=no damage to plant) [4]	score (100=total damage to plant, 0=no damage to plant) [5]	score (100=total damage to plant, 0=no damage to plant) [6]	score (100=total damage to plant, 0=no damage to plant) [7]	score (100=total damage to plant, 0=no damage to plant) [8]	pest or weed control at 1000 g/ha ([9]; STEME, read-out: damage to plant STEME (100=total damage; 0=no damage)) [%]	pest or weed control at 1000 g/ha ([9]; ZEAMX, read-out: damage to plant ZEAMX (100=total damage; 0=no damage)) [%]	pest or weed control at 1000 g/ha ([9]; Abutilon theophrasti, ABUTH, read-out: damage to plant ABUTH (100=total damage; 0=no damage)) [%]	pest or weed control at 1000 g/ha ([9]; Amaranthus retroflexus, AMARE, read-out: damage to plant AMARE (100=total damage; 0=no damage)) [%]	pest or weed control at 1000 g/ha ([9]; Echinochloa crus-galli, ECHCG, read-out: damage to plant ECHCG (100=total damage; 0=no damage)) [%]	pest or weed control at 1000 g/ha ([9]; Ipomoea hederacea, IPOHE, read-out: damage to plant IPOHE (100=total damage; 0=no damage)) [%]	pest or weed control at 1000 g/ha [10] [%]	pest or weed control at 1000 g/ha [11] [%]	pest or weed control at 1000 g/ha [12] [%]	plant injury at 1000 g/ha [13] [%]	pest or weed control at 1000 g/ha [14] [%]	pest or weed control at 1000 g/ha [15] [%]
COc1cc(C(F)(F)C(=O)O)ccc1C [Compound 1-7]	30	0	0	0	70	40	0	0												
O=C(O)C(F)(F)c1ccc(OC(F)(F)F)cc1 [Compound 1-3]	30	50	30	0	30	70	0	0												
CCOC(=O)C(F)(F)c1cccc2cccc(C(F)(F)C(=O)OCC)c12 [Compound 3-419, Ethyl 2-[8-(2-ethoxy-1,1-difluoro-2-oxo-ethyl)-1-naphthyl]-2,2-difluoro-acetate]	60	80	0	0	70	80	0	40	100	0	80	20	0	70	40	20	0	0	30	10
CCc1ccccc1C(F)(F)C(=O)O [Compound 1-263]	0	40	0	0	50	50	0	0												
COc1ccc(C(F)(F)C(=O)O)cc1 [Compound 1-2]	0	0	0	0	50	40	0	0												
